pIC50: −log10 of the molar value. The source made the active and inactive calls. No cut-off for these calls is given here.
Columns and labels:
[1] = target: Cytochrome P450 2C19 (Homo sapiens, UniProt P33261); assay: Time-dependent inhibition of CYP2C19 in human liver microsomes at 10 uM in presence of NADPH by LC-MS/MS analysis; type: ADME
[2] = target: CDK9/cyclin T1 (Homo sapiens, UniProt P50750)
Description: Inhibition of CDK9/cyclin T1 (unknown origin)

[3] = Toxicity in human U-87 MG cells xenografted BALB/c mouse assessed as body weight loss at 10 mg/kg, po qd for 16 days relative to control; type: organism-based; details: in vivo, 384 h, time 16 day
[4] = target: CYP2D6 (Homo sapiens, UniProt P10635); assay: Inhibition of CYP2D6 in human liver microsomes at 10 uM measured after 20 mins in presence of NADPH by LC-MS/MS analysis relative to control; type: ADME
Sequence of CYP2D6 (P10635 whole entry): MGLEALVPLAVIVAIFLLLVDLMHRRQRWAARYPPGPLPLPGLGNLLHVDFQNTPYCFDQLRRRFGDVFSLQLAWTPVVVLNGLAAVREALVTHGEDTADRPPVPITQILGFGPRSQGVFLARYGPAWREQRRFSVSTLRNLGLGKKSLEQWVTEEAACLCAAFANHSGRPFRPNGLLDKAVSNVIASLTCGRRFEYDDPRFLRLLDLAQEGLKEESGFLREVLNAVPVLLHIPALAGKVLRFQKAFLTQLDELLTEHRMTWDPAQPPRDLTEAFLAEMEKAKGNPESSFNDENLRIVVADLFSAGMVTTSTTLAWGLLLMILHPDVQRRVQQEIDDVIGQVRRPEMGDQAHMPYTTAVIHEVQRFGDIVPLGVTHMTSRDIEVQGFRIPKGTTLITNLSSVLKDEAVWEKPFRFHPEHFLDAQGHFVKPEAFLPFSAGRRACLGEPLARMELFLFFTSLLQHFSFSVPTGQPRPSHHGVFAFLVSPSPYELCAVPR

[5] = test system: MDA-MB-468; assay: Antiproliferative activity against human MDA-MB-468 cells assessed as cell growth inhibition measured after 4 to 6 days by celltiter-glo luminescent cell viability assay; type: functional, cell-based
[6] = test system: U-87 MG; assay: Antitumor activity against human U-87 MG cells xenografted in BALB/c mouse assessed as tumor growth at 10 mg/kg, po qd for 16 days relative to control; type: functional, U-87MG ATCC; details: time 16 day
[7] = Half life in Sprague-Dawley rat at 3 mg/kg, iv by LC-MS/MS analysis; type: ADME, organism-based; details: in vivo
[8] = Cmax in Sprague-Dawley rat at 6 mg/kg, po by LC-MS/MS analysis; type: ADME, organism-based; set-up: route oral, dose 6 mg/kg; details: in vivo
[9] = target: CDK6/Cyclin D3 (Homo sapiens, UniProt Q00534); assay: Inhibition of human full-length N-terminal GST tagged CDK6 (1 to 326 residues)/GST-tagged cyclinD3 (1 to 292 residues) expressed in baculovirus expression system using ULight-elF4E-binding protein 1 peptide as substrate measured after 30 mins by LANCE assay
Sequence of CDK6/Cyclin D3 (Q00534 whole entry, looked up, the tested form may be a part): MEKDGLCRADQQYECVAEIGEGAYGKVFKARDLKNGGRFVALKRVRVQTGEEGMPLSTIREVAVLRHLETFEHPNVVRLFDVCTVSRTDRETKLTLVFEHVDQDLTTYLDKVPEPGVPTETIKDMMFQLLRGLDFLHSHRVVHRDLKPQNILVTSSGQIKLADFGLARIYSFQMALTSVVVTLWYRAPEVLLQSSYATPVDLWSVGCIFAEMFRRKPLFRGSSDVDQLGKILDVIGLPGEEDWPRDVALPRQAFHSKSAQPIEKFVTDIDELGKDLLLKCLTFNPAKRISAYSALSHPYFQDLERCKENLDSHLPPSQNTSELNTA

[10] = Toxicity in human COLO 205 cells xenografted BALB/c mouse assessed as body weight loss at 3 mg/kg, po qd for 11 days relative to control; type: organism-based; details: in vivo, time 11 day
[11] = AUC (0 to t) in BALB/c mouse at 3 mg/kg, iv by LC-MS/MS analysis; type: ADME, organism-based; set-up: dose 3 mg/kg; details: in vivo
[12] = AUC (0 to t) in Sprague-Dawley rat at 6 mg/kg, po by LC-MS/MS analysis; type: ADME, organism-based; set-up: dose 6 mg/kg; details: in vivo
[13] = target: CYP2C19 (Homo sapiens, UniProt P33261); assay: Inhibition of CYP2C19 in human liver microsomes at 10 uM measured after 20 mins in presence of NADPH by LC-MS/MS analysis relative to control; type: ADME
Sequence of CYP2C19 (P33261 whole entry): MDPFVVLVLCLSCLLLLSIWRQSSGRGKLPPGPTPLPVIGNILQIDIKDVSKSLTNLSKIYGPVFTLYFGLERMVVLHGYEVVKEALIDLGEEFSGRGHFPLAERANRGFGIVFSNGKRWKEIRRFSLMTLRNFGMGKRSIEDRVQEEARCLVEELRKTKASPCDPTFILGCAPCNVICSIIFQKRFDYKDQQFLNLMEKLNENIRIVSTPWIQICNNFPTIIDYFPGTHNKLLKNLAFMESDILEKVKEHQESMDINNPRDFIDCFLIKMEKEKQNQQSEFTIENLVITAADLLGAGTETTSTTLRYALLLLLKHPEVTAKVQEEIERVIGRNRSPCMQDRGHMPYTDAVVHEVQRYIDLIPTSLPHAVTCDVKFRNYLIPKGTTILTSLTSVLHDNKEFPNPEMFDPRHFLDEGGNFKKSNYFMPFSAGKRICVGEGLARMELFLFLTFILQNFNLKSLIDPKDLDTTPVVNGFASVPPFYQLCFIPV

[14] = target: Cytochrome P450 3A4 (Homo sapiens, UniProt P08684); assay: Time-dependent inhibition of CYP3A4 in human liver microsomes at 10 uM in presence of NADPH by LC-MS/MS analysis; type: ADME
[15] = target: Cyclin-dependent kinase 1/cyclin B1 (Homo sapiens, UniProt P06493)
Sequence of Cyclin-dependent kinase 1/cyclin B1 (P06493 whole entry): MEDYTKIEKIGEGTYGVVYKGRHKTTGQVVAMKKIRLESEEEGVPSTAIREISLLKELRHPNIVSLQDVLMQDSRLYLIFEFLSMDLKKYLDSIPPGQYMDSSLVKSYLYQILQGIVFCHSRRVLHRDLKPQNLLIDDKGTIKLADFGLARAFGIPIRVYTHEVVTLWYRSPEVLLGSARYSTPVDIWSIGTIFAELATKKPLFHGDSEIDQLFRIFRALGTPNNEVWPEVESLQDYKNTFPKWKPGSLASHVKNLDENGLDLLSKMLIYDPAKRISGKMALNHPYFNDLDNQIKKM
Sequence of Cyclin-dependent kinase 1/cyclin B1 (P14635 whole entry, further chain): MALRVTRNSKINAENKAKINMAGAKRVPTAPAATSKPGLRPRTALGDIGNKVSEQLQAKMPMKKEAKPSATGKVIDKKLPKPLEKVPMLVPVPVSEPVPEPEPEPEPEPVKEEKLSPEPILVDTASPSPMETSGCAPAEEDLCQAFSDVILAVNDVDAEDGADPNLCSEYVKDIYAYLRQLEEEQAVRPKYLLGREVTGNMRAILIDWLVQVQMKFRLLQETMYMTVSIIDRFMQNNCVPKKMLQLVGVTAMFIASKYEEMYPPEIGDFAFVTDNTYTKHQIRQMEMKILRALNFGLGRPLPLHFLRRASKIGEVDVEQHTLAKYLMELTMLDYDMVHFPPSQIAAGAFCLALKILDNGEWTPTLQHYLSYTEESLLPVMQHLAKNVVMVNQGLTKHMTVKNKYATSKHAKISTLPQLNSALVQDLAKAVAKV
Description: Inhibition of CDK1/cyclin B (unknown origin)

[16] = target: Cytochrome P450 2D6 (Homo sapiens, UniProt P10635); assay: Time-dependent inhibition of CYP2D6 in human liver microsomes at 10 uM in presence of NADPH by LC-MS/MS analysis; type: ADME
Sequence of Cytochrome P450 2D6 (P10635 whole entry): as the sequence (P10635 whole entry) above

[17] = Oral bioavailability in BALB/c mouse at 10 mg/kg by LC-MS/MS analysis; type: ADME, organism-based; details: in vivo
[18] = target: CDK2/Cyclin A2 (Homo sapiens, UniProt P24941)
Description: Inhibition of CDK2/cyclin A2 (unknown origin)

[19] = test system: COLO 205; assay: Antitumor activity against human COLO 205 cells xenografted in po dosed BALB/c mouse assessed as tumor growth inhibition administered once daily or every three days for 11 days; type: functional, organism-based; details: time 11.0 day
[20] = Half life in BALB/c mouse at 10 mg/kg, po by LC-MS/MS analysis; type: ADME, organism-based; details: in vivo
[21] = test system: U-87 MG; assay: Antiproliferative activity against human U-87 MG cells assessed as cell growth inhibition measured after 4 to 6 days by celltiter-glo luminescent cell viability assay; type: functional, cell-based, U-87MG ATCC
[22] = Volume of distribution at steady state in BALB/c mouse at 3 mg/kg, iv by LC-MS/MS analysis; type: ADME, organism-based; details: in vivo, read-out: Vdss
[23] = target: Cytochrome P450 2C9 (Homo sapiens, UniProt P11712); assay: Time-dependent inhibition of CYP2C9 in human liver microsomes at 10 uM in presence of NADPH by LC-MS/MS analysis; type: ADME
Sequence of Cytochrome P450 2C9 (P11712 whole entry): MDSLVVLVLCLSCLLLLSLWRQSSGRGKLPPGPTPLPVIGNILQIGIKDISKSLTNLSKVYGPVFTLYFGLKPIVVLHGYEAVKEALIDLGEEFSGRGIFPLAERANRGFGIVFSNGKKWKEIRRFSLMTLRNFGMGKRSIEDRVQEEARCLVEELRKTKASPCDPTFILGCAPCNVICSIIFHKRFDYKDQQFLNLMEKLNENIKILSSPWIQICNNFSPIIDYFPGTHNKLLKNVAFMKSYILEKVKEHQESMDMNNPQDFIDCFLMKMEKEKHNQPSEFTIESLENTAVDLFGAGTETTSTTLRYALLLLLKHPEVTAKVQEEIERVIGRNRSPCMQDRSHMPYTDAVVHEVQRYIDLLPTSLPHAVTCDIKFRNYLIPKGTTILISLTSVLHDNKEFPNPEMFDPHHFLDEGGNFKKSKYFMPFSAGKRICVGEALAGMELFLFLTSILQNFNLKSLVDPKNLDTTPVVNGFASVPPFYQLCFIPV

[24] = AUC (0 to t) in Sprague-Dawley rat at 3 mg/kg, iv by LC-MS/MS analysis; type: ADME, organism-based; set-up: dose 3 mg/kg; details: in vivo
[25] = test system: COLO 205; assay: Antitumor activity against human COLO 205 cells xenografted in BALB/c mouse assessed as tumor growth at 3 mg/kg, po q3d for 11 days measured post last dose relative to control; type: functional; details: time 11 day
[26] = test system: COLO 205; assay: Antitumor activity against human COLO 205 cells xenografted in BALB/c mouse assessed as tumor growth inhibition at 30 mg/kg, po q3d for 11 days relative to control; type: functional; details: COLO 205, po, time 11 day, read-out: TGI
[27] = Oral bioavailability in Sprague-Dawley rat at 6 mg/kg by LC-MS/MS analysis; type: ADME, organism-based; details: in vivo
[28] = target: Cyclin-dependent kinase 7/ cyclin H (Homo sapiens, UniProt P50613); assay: Inhibition of CDK7/cyclin H (unknown origin); type: protein-complex assay
[29] = test system: COLO 205; assay: Antiproliferative activity against human COLO 205 cells assessed as cell growth inhibition measured after 4 to 6 days by celltiter-glo luminescent cell viability assay; type: functional, cell-based
[30] = Half life in BALB/c mouse at 3 mg/kg, iv by LC-MS/MS analysis; type: ADME, organism-based; details: in vivo
[31] = target: CYP2C9 (Homo sapiens, UniProt P11712); assay: Inhibition of CYP2C9 in human liver microsomes at 10 uM measured after 20 mins in presence of NADPH by LC-MS/MS analysis relative to control; type: ADME
Sequence of CYP2C9 (P11712 whole entry): as above

[32] = test system: COLO 205; assay: Antitumor activity against human COLO 205 cells xenografted in BALB/c mouse assessed as reduction in tumor volume at 30 mg/kg, po q3d for 11 days measured post last dose by caliper method; type: functional, organism-based; details: time 11.0 day
[33] = AUC (0 to t) in BALB/c mouse at 10 mg/kg, po by LC-MS/MS analysis; type: ADME, organism-based; set-up: dose 10 mg/kg; details: in vivo
[34] = target: CDK4/Cyclin D3 (Homo sapiens, UniProt P11802); assay: Inhibition of recombinant human full-length N-terminal GST-fused CDK4 (1 to 303 residues)/GST-tagged CyclinD3 (1 to 292 residues) expressed in baculovirus expression system using ULight-elF4E-binding protein 1 peptide as substrate measured after 30 mins by LANCE assay
[35] = test system: U-87 MG; assay: Antitumor activity against human U-87 MG cells xenografted in BALB/c mouse assessed as tumor growth inhibition at 10 mg/kg, po qd for 16 days relative to control; type: functional, U-87MG ATCC; details: 384 h, time 16 day, read-out: TGI
[36] = Volume of distribution at steady state in Sprague-Dawley rat at 3 mg/kg, iv by LC-MS/MS analysis; type: ADME, organism-based; details: in vivo, read-out: Vdss
[37] = Toxicity in human COLO 205 cells xenografted BALB/c mouse assessed as body weight loss at 30 mg/kg, po q3d for 11 days relative to control; type: organism-based; details: in vivo, time 11 day

Sequence of CDK9/cyclin T1 (O60563 whole entry): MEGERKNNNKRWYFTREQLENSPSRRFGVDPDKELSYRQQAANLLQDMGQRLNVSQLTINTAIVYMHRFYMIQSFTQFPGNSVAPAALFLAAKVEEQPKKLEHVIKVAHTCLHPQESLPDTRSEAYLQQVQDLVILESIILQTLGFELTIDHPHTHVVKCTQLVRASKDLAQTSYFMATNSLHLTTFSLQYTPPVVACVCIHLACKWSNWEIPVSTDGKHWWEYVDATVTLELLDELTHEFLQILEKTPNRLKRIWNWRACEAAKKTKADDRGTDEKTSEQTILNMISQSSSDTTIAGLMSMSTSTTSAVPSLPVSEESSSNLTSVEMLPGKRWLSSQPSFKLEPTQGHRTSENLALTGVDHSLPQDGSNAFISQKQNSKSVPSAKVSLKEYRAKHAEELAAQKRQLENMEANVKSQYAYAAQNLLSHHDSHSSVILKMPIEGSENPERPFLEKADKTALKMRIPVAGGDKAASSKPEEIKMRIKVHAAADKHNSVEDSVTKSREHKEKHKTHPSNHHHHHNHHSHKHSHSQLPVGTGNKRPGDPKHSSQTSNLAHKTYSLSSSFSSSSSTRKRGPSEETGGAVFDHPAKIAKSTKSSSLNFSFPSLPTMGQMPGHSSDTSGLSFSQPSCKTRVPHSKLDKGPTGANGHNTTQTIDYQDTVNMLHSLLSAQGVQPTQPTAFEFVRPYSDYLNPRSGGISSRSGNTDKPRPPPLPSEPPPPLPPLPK
Sequence of CDK9/cyclin T1 (P50750 whole entry): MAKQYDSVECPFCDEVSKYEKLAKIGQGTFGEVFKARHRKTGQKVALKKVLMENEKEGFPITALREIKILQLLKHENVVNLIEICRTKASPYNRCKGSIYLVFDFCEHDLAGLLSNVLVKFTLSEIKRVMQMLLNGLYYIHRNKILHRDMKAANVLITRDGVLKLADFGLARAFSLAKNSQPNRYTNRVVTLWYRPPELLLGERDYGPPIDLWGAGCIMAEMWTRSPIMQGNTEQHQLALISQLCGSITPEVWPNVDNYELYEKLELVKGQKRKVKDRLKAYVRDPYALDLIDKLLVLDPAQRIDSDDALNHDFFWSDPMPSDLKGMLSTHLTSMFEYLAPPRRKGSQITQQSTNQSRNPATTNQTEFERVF
Sequence of Cytochrome P450 2C19 (P33261 whole entry): as the sequence (P33261 whole entry) above

- TDI [1]: Not Active
- pIC50 [2]: 7.63
- inhibition at […], 10 µM [4]: 14%
- pIC50 [5]: 6.06
- half-life [7]: 3.25 h
- Cmax [8]: 110 ng/mL
- pIC50 [9]: 8.70
- AUCt [11]: 472 ng·h/mL
- AUC(0-t) [12]: 1120 ng·h/mL
- inhibition at […], 10 µM [13]: 21%
- TDI [14]: Not Active
- pIC50 [15]: 6.51
- TDI [16]: Not Active
- bioavailability [17]: 20.5%
- pIC50 [18]: 7.72
- half-life [20]: 4.08 h
- pIC50 [21]: 7.07
- Vd [22]: 46.5 L/kg
- TDI [23]: Not Active
- AUCt [24]: 861 ng·h/mL
- bioavailability [27]: 65.2%
- pIC50 [28]: 7.02
- pIC50 [29]: 7.25
- half-life [30]: 6.17 h
- inhibition at […], 10 µM [31]: 11%
- AUC(0-t) [33]: 318 ng·h/mL
- pIC50 [34]: 9.10
- Vd [36]: 35.2 L/kg
Compound: CC(=O)c1c(C)c2cnc(Nc3ccc(N4CCNCC4)cc3)nc2n2cc(C(C)C)nc12
- Activity [3]: < 20%
- T/C [6]: 53%
- Activity [10]: < 20%
- TGI [19]: Dose-dependent effect
- T/C [25]: 52%
- inhibition in vivo at 30 mg/kg [26]: 85%
- Activity [32]: Active
- inhibition in vivo at 10 mg/kg [35]: 54%
- Activity [37]: < 20%
